Columns and labels:
IGF-1R [1] = biological target: T1, IGF-1R (Homo sapiens (Human), UniProt P08069); experiment: Example B-1: IGF-1R Assay (PC3 cells, IGF1 stimulation, AlphaLISA); type: cell-based; conditions: 200 ng/mL IGF1 stimulation, read-out: Biological Activity against IGF-1R IC50
Summary of the method: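 Readout is AlphaLISA signal from lysed PC3 cells, expressed as % inhibition versus vehicle and EC80 controls and banded by IC50. Before lysis, the cells were starved of serum for 2 h, exposed to 3× serially diluted compound for 2 h, and stimulated for 30 min with 200 ng/mL IGF1 (final).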
Target sequence in this assay (P08069 31-1367): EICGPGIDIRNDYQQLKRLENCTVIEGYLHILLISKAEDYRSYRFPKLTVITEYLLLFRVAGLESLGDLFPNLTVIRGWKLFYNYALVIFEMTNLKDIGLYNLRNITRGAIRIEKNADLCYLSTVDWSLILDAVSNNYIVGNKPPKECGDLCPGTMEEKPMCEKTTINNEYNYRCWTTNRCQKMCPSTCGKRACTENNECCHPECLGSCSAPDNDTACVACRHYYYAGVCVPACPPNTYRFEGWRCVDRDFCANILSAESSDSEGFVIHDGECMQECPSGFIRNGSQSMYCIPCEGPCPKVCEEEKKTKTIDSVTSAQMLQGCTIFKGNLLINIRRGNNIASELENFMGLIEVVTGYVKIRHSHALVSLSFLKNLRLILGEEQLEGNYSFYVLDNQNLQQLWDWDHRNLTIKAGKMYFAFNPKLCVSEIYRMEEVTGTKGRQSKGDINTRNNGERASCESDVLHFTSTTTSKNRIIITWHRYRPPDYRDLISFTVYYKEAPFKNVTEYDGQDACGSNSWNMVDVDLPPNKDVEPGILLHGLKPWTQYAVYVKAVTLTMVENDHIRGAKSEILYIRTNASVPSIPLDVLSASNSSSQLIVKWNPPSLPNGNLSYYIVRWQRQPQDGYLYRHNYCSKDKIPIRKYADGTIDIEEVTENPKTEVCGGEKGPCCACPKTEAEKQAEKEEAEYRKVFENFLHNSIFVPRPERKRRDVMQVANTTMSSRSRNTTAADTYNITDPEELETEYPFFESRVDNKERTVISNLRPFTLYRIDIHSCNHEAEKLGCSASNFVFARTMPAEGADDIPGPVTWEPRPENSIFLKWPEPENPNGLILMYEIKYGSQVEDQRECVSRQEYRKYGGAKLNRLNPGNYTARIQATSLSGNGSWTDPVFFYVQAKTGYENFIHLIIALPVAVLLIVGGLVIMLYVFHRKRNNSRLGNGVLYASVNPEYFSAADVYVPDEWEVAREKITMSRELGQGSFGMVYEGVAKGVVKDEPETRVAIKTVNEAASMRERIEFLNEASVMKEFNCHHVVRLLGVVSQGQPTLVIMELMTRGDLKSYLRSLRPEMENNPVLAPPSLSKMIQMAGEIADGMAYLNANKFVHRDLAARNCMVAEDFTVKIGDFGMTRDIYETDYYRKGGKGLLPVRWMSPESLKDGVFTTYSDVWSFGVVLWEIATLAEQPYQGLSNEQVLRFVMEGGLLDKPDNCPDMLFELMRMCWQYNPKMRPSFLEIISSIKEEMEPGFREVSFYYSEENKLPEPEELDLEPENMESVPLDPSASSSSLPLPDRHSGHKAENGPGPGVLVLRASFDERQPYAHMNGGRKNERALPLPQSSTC

IGF-1R [2] = biological target: T1, IGF-1R; experiment: Example B-2: IGF-1R Assay (PathHunter cell lines, EC80 agonist challenge); type: cell-based; conditions: read-out: IC50 (Biological Activity against IGF-1R)
Experimental: PathHunter cell lines were expanded from freezer stocks according to standard procedures. Cells were seeded in a total volume of 20 μL into white walled, 384-well microplates and incubated for the appropriate time prior to testing.
Cells are pre-incubated with compound followed by EC80 agonist challenge as follows: • 1. Intermediate dilution of sample stocks was performed to generate 5× sample in assay buffer. • 2. 5 μL of 5× sample was added to cells and incubated at 37° C. for 60 minutes. Vehicle concentration was 1%. • 3. 5 μL of 6×EC80 agonist in assay buffer was added to the cells and incubated at room temperature for 3 hours.
Assay signal was generated through a single addition of 12.5 or 15 μL (50% v/v) of PathHunter Detection reagent cocktail for agonist and antagonist assays respectively, followed by a one hour incubation at room temperature. Microplates were read following signal generation with a PerkinElmer Envision™ instrument for chemilumine-scent signal detection.
Compound activity was analyzed using CBIS data analysis suite (ChemInnovation, CA). Percentage inhibition was calculated using the following formula: % Inhibition=100%×(1−(mean RLU of test sample−mean RLU of vehicle control)/(mean RLU of EC80 control−mean RLU of vehicle control)). The activity for representative examples of the invention is shown in the following table, wherein A: IC50≤500 nM; B: 500 nM<IC50≤2 μM; C: […]≤10 μM; D: IC50>[…].
Target sequence in this assay (P08069 31-1367, species assumed): as the sequence (P08069 31-1367) above

Compound | IC50 (IGF-1R [1]) [nM] | IC50 (IGF-1R [2]) [nM]
COc1cc(Nc2nccc(Nc3cnc4ccccc4c3)n2)ccc1N1CCC(N2CCOCC2)CC1 [Compound 3, 2-[3-methoxy-4-(4-morpholino-1-piperidyl)phenylamino]-4-(3-quinolylamino)pyrimidine] | ≤ 500 | ≤ 500
COc1cc(Nc2nccc(Nc3cnc4ccc(Cl)nc4c3)n2)ccc1O[C@H]1C[C@@H](N(C)C)C1 [Compound 10, 4-(6-chloro-1,5-diaza-3-naphthylamino)-2-{3-methoxy-4-[(1s,3s)-3-(dimethylamino)cyclobutoxy]phenylamino}pyrimidine] | ≤ 500 | 500 to 2000
COc1cc(Nc2nccc(Nc3cnc4ccccc4c3)n2)ccc1O[C@H]1CC[C@H](N(C)C)CC1 [Compound 17, 2-{3-methoxy-4-[(1r,4r)-4-(dimethylamino)cyclohexyloxy]phenylamino}-4-(3-quinolylamino)pyrimidine] | ≤ 500 | ≤ 500
COc1cc(Nc2nccc(Nc3cnc4ccccc4c3)n2)ccc1O[C@H]1C[C@@H](N2CCOCC2)C1 [Compound 21, 2-{3-methoxy-4-[(1s,3s)-3-morpholinocyclobutoxy]phenylamino}-4-(3-quinolylamino)pyrimidine] | ≤ 500 | ≤ 500
COc1cc(Nc2nccc(Nc3cnc4c(c3)CCC3(CCC3)C4)n2)ccc1O[C@H]1C[C@H](N(C)C)C1 [Compound 77, 4-(6′,8′-dihydro-5′H-spiro[cyclobutane-1,7′-quinolin]-3′-ylamino)-2-{3-methoxy-4-[(1r,3r)-3-(dimethylamino)cyclobutoxy]phenylamino}pyrimidine] | ≤ 500 | ≤ 500
CN(C)CC(=O)N1CCc2ccc(Nc3nccc(Nc4cnc5ccccc5c4)n3)cc21 [Compound 92, 2-(dimethylamino)-1-{6-[4-(3-quinolylamino)-2-pyrimidinylamino]-1-indolinyl}-1-ethanone] | ≤ 500 | ≤ 500
COc1cc(Nc2nccc(Nc3cnc4ccccc4c3)n2)ccc1N1CCN(C)CC1 [Compound 94, 2-[3-methoxy-4-(4-methyl-1-piperazinyl)phenylamino]-4-(3-quinolylamino)pyrimidine] | ≤ 500 | ≤ 500
COc1cc(Nc2nccc(Nc3cc4cc(Cl)ccc4[nH]c3=O)n2)ccc1O[C@H]1C[C@H](N(C)C)C1 [Compound 109, 6-chloro-3-(2-{3-methoxy-4-[(1r,3r)-3-(dimethylamino)cyclobutoxy]phenyl-amino}-4-pyrimidinylamino)-1,2-dihydro-2-quinolinone] | ≤ 500 | 500 to 2000
COc1cc(Nc2nccc(Nc3cnc4cc(F)c(F)cc4c3)n2)ccc1O[C@H]1C[C@@H](N(C)C)C1 [Compound 115, 4-(6,7-difluoro-3-quinolylamino)-2-{3-methoxy-4-[(1s,3s)-3-(dimethylamino)cyclobutoxy]phenylamino}pyrimidine] | ≤ 500 | 500 to 2000
COc1cc(Nc2nccc(Nc3cnc4c(Cl)cc(F)cc4c3)n2)ccc1O[C@H]1C[C@@H](N(C)C)C1 [Compound 116, 4-(8-chloro-6-fluoro-3-quinolylamino)-2-{3-methoxy-4-[(1s,3s)-3-(dimethylamino)cyclobutoxy]phenylamino}pyrimidine] | ≤ 500 | 500 to 2000
COc1cc(Nc2nccc(Nc3cc4ccccc4nc3C(N)=O)n2)ccc1O[C@H]1C[C@@H](N(C)C)C1 [Compound 297, 3-(2-{3-methoxy-4-[(1s,3s)-3-(dimethylamino)cyclobutoxy]phenylamino}-4-pyrimidinylamino)-2-quinolinecarboxamide] |  | 500 to 2000
COc1cc(Nc2nccc(Nc3cnc4cc(F)c(F)cc4c3)n2)cnc1N1CCNCC1 [Compound 478, 4-(6,7-difluoro-3-quinolylamino)-2-[5-methoxy-6-(1-piperazinyl)-3-pyridylamino]pyrimidine] | ≤ 500 | 
COc1cc(Nc2nccc(Nc3cnc4ccc(Cl)cc4c3)n2)cnc1N1CCN(CC#N)CC1 [Compound 479, (4-{5-[4-(6-chloro-3-quinolylamino)-2-pyrimidinylamino]-3-methoxy-2-pyridyl}-1-piperazinyl)acetonitrile] | ≤ 500 | 
COc1cc(Nc2nccc(Nc3cnc4ccc(Cl)cc4c3)n2)cnc1N1CCN(C)C(C)(C)C1 [Compound 480, 4-(6-chloro-3-quinolylamino)-2-[6-(3,3-dimethyl-4-methyl-1-piperazinyl)-5-methoxy-3-pyridylamino] pyrimidine] | ≤ 500 | 
COc1cc(Nc2nccc(Nc3cnc4ccc(Cl)cc4c3)n2)cnc1N1CCN(C2COC2)CC1 [Compound 481, 4-(6-chloro-3-quinolylamino)-2-{5-methoxy-6-[4-(3-oxetanyl)-1-piperazinyl]-3-pyridylamino}pyrimidine] | ≤ 500 | 
COc1cc(Nc2nccc(Nc3cnc4cc(F)c(F)cc4c3)n2)cnc1N1CCNC(C(F)F)C1 (stereo not drawn) [Compound 482, 2-{6-[3-(difluoromethyl)-1-piperazinyl]-5-methoxy-3-pyridylamino}-4-(6,7-difluoro-3-quinolylamino)pyrimidine] | ≤ 500 | 
COc1cc(Nc2nccc(Nc3cnc4cc(F)c(F)cc4c3)n2)cnc1N1CCN(C)C(C)(C)C1 [Compound 484, 4-(6,7-difluoro-3-quinolylamino)-2-[6-(3,3-dimethyl-4-methyl-1-piperazinyl)-5-methoxy-3-pyridylamino]pyrimidine] | ≤ 500 | 
COc1nc(N2CCN(C)CC2)ccc1Nc1nccc(Nc2cnc3ccc(Cl)cc3c2)n1 [Compound 485, 4-(6-chloro-3-quinolylamino)-2-[2-methoxy-6-(4-methyl-1-piperazinyl)-3-pyridylamino]pyrimidine] | ≤ 500 | 
COc1cc(N2CCN(C)CC2)ncc1Nc1nccc(Nc2cnc3ccc(Cl)cc3c2)n1 [Compound 486, 4-(6-chloro-3-quinolylamino)-2-[4-methoxy-6-(4-methyl-1-piperazinyl)-3-pyridylamino]pyrimidine] | ≤ 500 | 
COc1nc(N2CCC(C)(O)CC2)ccc1Nc1nccc(Nc2cnc3cc(F)c(F)cc3c2)n1 [Compound 487, 1-{5-[4-(6,7-difluoro-3-quinolylamino)-2-pyrimidinylamino]-6-methoxy-2-pyridyl}-4-methyl-4-piperidinol] | ≤ 500 | 
COc1cc(N2CCC(C)(O)CC2)ncc1Nc1nccc(Nc2cnc3cc(F)c(F)cc3c2)n1 [Compound 488, 1-{5-[4-(6,7-difluoro-3-quinolylamino)-2-pyrimidinylamino]-4-methoxy-2-pyridyl}-4-methyl-4-piperidinol] | ≤ 500 | 
COc1nc(N2CCC(C)(O)CC2)ccc1Nc1nccc(Nc2cnc3ccc(Cl)cc3c2)n1 [Compound 489, 1-{5-[4-(6-chloro-3-quinolylamino)-2-pyrimidinylamino]-6-methoxy-2-pyridyl}-4-methyl-4-piperidinol] | ≤ 500 | 
COc1cc(N2CCC(C)(O)CC2)ncc1Nc1nccc(Nc2cnc3ccc(Cl)cc3c2)n1 [Compound 490, 1-{5-[4-(6-chloro-3-quinolylamino)-2-pyrimidinylamino]-4-methoxy-2-pyridyl}-4-methyl-4-piperidinol] | ≤ 500 | 
COc1cc(Nc2ncc(F)c(Nc3cc4ccccc4nc3C(N)=O)n2)cnc1N1CCC(C)(O)CC1 [Compound 491, 3-{5-fluoro-2-[6-(4-hydroxy-4-methyl-1-piperidyl)-5-methoxy-3-pyridylamino]-4-pyrimidinylamino}-2-quinolinecarboxamide] | ≤ 500 | 
COc1cc(N2CCC(C)(O)CC2)ncc1Nc1ncc(F)c(Nc2cc3ccccc3nc2C(N)=O)n1 [Compound 492, 3-{5-fluoro-2-[6-(4-hydroxy-4-methyl-1-piperidyl)-4-methoxy-3-pyridylamino]-4-pyrimidinylamino}-2-quinolinecarboxamide] | ≤ 500 | 
COc1cc(N2CCN(CC#N)CC2)ncc1Nc1ncc(F)c(Nc2cc3ccccc3nc2C(N)=O)n1 [Compound 493, 3-(2-{6-[4-(cyanomethyl)-1-piperazinyl]-4-methoxy-3-pyridylamino}-5-fluoro-4-pyrimidinylamino)-2-quinolinecarboxamide] | ≤ 500 | 
COc1cc(N2CCN(C3COC3)CC2)ncc1Nc1nccc(Nc2cnc3ccc(Cl)cc3c2)n1 [Compound 494, 4-(6-chloro-3-quinolylamino)-2-{4-methoxy-6-[4-(3-oxetanyl)-1-piperazinyl]-3-pyridylamino}pyrimidine] | ≤ 500 | 
COc1cc(N2CCN(C3COC3)CC2)ncc1Nc1ncc(F)c(Nc2cc3ccccc3nc2C(N)=O)n1 [Compound 495, 3-(5-fluoro-2-{4-methoxy-6-[4-(3-oxetanyl)-1-piperazinyl]-3-pyridylamino}-4-pyrimidinylamino)-2-quinolinecarboxamide] | ≤ 500 | 
O=S1(=O)CCN(CCCOc2ccc(Nc3nccc(Nc4cnc5c(c4)OCCO5)n3)cc2)CC1 [Compound 506, 4-(3-{p-[4-(2,3-dihydro-1,4-dioxa-5-aza-7-naphthylamino)-2-pyrimidinylamino]phenoxy}propyl)-1λ^6,4-thiazinane-1,1-dione] | ≤ 500 | 

From patent publication US20250171431A1, “HETEROCYCLIC INHIBITORS OF IGF-1R FOR TREATMENT OF DISEASE” (HORIZON THERAPEUTICS IRELAND DAC, priority 2023, published 2025)
